Test results published in patent US6355799B1, “Substituted benzene compounds, process for their preparation, and herbicidal and defoliant compositions containing them” (ISK Americas Incorporated, priority 1997, dated 2002).

What was measured:
Type in all cases: in vivo
[1] = tested on: upland rice (Oryza sp., var. Tebonnet, RICE); assay: Post-emerge test, crop safety; conditions: phytotoxicity rating 0-100 (0 no damage, 100 complete death), 14 days after application
Outline: (§1)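 Compounds in acetone were track-sprayed at 187 l/ha, 15–1000 g ai/ha, onto sandy loam pots. Pre-emerge seeds were sown one day before spraying, with surface watering afterwards. Post-emerge plants were at the 2–3 leaf stage and sprayed with 0.25% v/v non-ionic surfactant. Injury was rated 0–100 at 14 days.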

[2] = tested on: field corn (Zea mays L., var. Dekalb 535, CORN); assay: Post-emerge test, crop safety; conditions: phytotoxicity rating 0-100 (0 no damage, 100 complete death), 14 days after application
Outline: as §1

[3] = tested on: upland rice (Oryza sp., var. Tebonnet, RICE); assay: Pre-emerge test, crop safety; conditions: pre-emerge, rated 14 days after application, 0 = no damage, 100 = complete death
Outline: (§2)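 Sandy loam pots; pre-emerge: sown 1 d pre-spray, surface-watered after, then bottom-watered. Post-emerge: sown 8–21 d before, 2–3 leaf stage, + 0.25% v/v NIS, bottom-watered. Acetone, 187 l/ha track spray, 15–1000 g ai/ha. 0–100 injury score, day 14.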

[4] = tested on: field corn (Zea mays L., var. Dekalb 535, CORN); assay: Pre-emerge test, crop safety; conditions: pre-emerge, rated 14 days after application, 0 = no damage, 100 = complete death
Outline: as §2

[5] = tested on: redroot pigweed (Amaranthus retroflexus, AMARE); assay: Post-emerge test, greenhouse herbicide activity screening; conditions: phytotoxicity rating 0-100 (0 no damage, 100 complete death), 14 days after application
Outline: (§3)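 Applied at 15–1000 g ai/ha from acetone in 187 l/ha spray volume. Post-emergence applications included 0.25% v/v non-ionic surfactant and reached plants sown 8–21 days before. Pre-emergence applications were incorporated by surface watering. Efficacy or crop damage was rated on a 0–100 scale after 14 days.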

[6] = tested on: velvetleaf (Abutilon theophrasti, ABUTH); assay: as above; conditions: phytotoxicity rating 0-100 (0 no damage, 100 complete death), 14 days after application
Outline: as §3

[7] = tested on: large crabgrass (Digitaria sanguinalis, DIGSA); assay: as above; conditions: phytotoxicity rating 0-100 (0 no damage, 100 complete death), 14 days after application
Outline: as §3

[8] = tested on: sicklepod (Cassia obtusifolia, CASOB); assay: as above; conditions: phytotoxicity rating 0-100 (0 no damage, 100 complete death), 14 days after application
Outline: as §3

[9] = tested on: ivyleaf morningglory (Ipomoea hederacea, IPOHE); assay: as above; conditions: phytotoxicity rating 0-100 (0 no damage, 100 complete death), 14 days after application
Outline: as §3

[10] = tested on: johnsongrass (Sorghum halepense, SORHA); assay: as above; conditions: phytotoxicity rating 0-100 (0 no damage, 100 complete death), 14 days after application
Outline: as §3

[11] = tested on: green foxtail (Setaria viridis, SETVI); assay: as above; conditions: phytotoxicity rating 0-100 (0 no damage, 100 complete death), 14 days after application
Outline: as §3

[12] = tested on: lambsquarters (Chenopodium album, CHEAL); assay: as above; conditions: phytotoxicity rating 0-100 (0 no damage, 100 complete death), 14 days after application
Outline: as §3

[13] = tested on: barnyardgrass (Echinochloa crus-galli, ECHCG); assay: as above; conditions: phytotoxicity rating 0-100 (0 no damage, 100 complete death), 14 days after application
Outline: as §3

[14] = tested on: redroot pigweed (Amaranthus retroflexus, AMARE); assay: Pre-emerge test, greenhouse herbicide activity screening; conditions: pre-emerge, rated 14 days after application, 0 = no damage, 100 = complete death
Outline: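 Herbicidal damage is scored 0 (none) to 100 (complete plant death) two weeks after a simulated field spray. Rates span 15–1000 g ai/ha, delivered in acetone at 187 l/ha. For post-emergence treatments, plants have 2–3 leaves and the spray carries 0.25% v/v non-ionic surfactant.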

[15] = tested on: velvetleaf (Abutilon theophrasti, ABUTH); assay: as above; conditions: pre-emerge, rated 14 days after application, 0 = no damage, 100 = complete death
Outline: as §1

[16] = tested on: large crabgrass (Digitaria sanguinalis, DIGSA); assay: as above; conditions: pre-emerge, rated 14 days after application, 0 = no damage, 100 = complete death
Outline: as §1

[17] = tested on: common ragweed (Ambrosia artemisizfolia L., AMBEL); assay: as above; conditions: pre-emerge, rated 14 days after application, 0 = no damage, 100 = complete death
Outline: as §1

[18] = tested on: sicklepod (Cassia obtusifolia, CASOB); assay: as above; conditions: pre-emerge, rated 14 days after application, 0 = no damage, 100 = complete death
Outline: as §1

[19] = tested on: ivyleaf morningglory (Ipomoea hederacea, IPOHE); assay: as above; conditions: pre-emerge, rated 14 days after application, 0 = no damage, 100 = complete death
Outline: as §1

[20] = tested on: johnsongrass (Sorghum halepense, SORHA); assay: as above; conditions: pre-emerge, rated 14 days after application, 0 = no damage, 100 = complete death
Outline: as §1

[21] = tested on: green foxtail (Setaria viridis, SETVI); assay: as above; conditions: pre-emerge, rated 14 days after application, 0 = no damage, 100 = complete death
Outline: as §1

[22] = tested on: lambsquarters (Chenopodium album, CHEAL); assay: as above; conditions: pre-emerge, rated 14 days after application, 0 = no damage, 100 = complete death
Outline: as §1

[23] = tested on: barnyardgrass (Echinochloa crus-galli, ECHCG); assay: as above; conditions: pre-emerge, rated 14 days after application, 0 = no damage, 100 = complete death
Outline: as §1

CCOC(=O)C(C)Nc1cc(OC(F)F)cc(F)c1-n1c(=O)cc(C(F)(F)F)n(C)c1=O (stereo not shown) [Compound 1-53]
Post-emerge Herbicidal Activity RICE (crop damage) ([1]; 63 g ai/ha): 10
Post-emerge Herbicidal Activity RICE (crop damage) ([1]; 250 g ai/ha): 60
Post-emerge Herbicidal Activity CORN (crop damage) ([2]; 63 g ai/ha): 0
Post-emerge Herbicidal Activity CORN (crop damage) ([2]; 250 g ai/ha): 30
Pre-emerge crop damage RICE (phytotoxicity rating, scale 0-100) ([3]; 63 g ai/ha): 50
Pre-emerge crop damage RICE (phytotoxicity rating, scale 0-100) ([3]; 250 g ai/ha): 90
Pre-emerge crop damage CORN (phytotoxicity rating, scale 0-100) ([4]; 63 g ai/ha): 95
Pre-emerge crop damage CORN (phytotoxicity rating, scale 0-100) ([4]; 250 g ai/ha): 100
Post-emerge Herbicidal Activity AMARE ([5]; 63 g ai/ha): 80
Post-emerge Herbicidal Activity AMARE ([5]; 250 g ai/ha): 100
Post-emerge Herbicidal Activity ABUTH ([6]; 63 g ai/ha): 100
Post-emerge Herbicidal Activity ABUTH ([6]; 250 g ai/ha): 100
Post-emerge Herbicidal Activity DIGSA ([7]; 63 g ai/ha): 0
Post-emerge Herbicidal Activity DIGSA ([7]; 250 g ai/ha): 50
Post-emerge Herbicidal Activity CASOB ([8]; 63 g ai/ha): 60
Post-emerge Herbicidal Activity CASOB ([8]; 250 g ai/ha): 95
Post-emerge Herbicidal Activity IPOHE ([9]; 63 g ai/ha): 95
Post-emerge Herbicidal Activity IPOHE ([9]; 250 g ai/ha): 100
Post-emerge Herbicidal Activity SORHA ([10]; 63 g ai/ha): 0
Post-emerge Herbicidal Activity SORHA ([10]; 250 g ai/ha): 40
Post-emerge Herbicidal Activity SETVI ([11]; 63 g ai/ha): 0
Post-emerge Herbicidal Activity SETVI ([11]; 250 g ai/ha): 80
Post-emerge Herbicidal Activity CHEAL ([12]; 63 g ai/ha): 50
Post-emerge Herbicidal Activity CHEAL ([12]; 250 g ai/ha): 100
Post-emerge Herbicidal Activity ECHCG ([13]; 63 g ai/ha): 0
Post-emerge Herbicidal Activity ECHCG ([13]; 250 g ai/ha): 50
Pre-emerge Herbicidal Activity AMARE (phytotoxicity rating, scale 0-100) ([14]; 63 g ai/ha): 100
Pre-emerge Herbicidal Activity AMARE (phytotoxicity rating, scale 0-100) ([14]; 250 g ai/ha): 100
Pre-emerge Herbicidal Activity ABUTH (phytotoxicity rating, scale 0-100) ([15]; 63 g ai/ha): 100
Pre-emerge Herbicidal Activity ABUTH (phytotoxicity rating, scale 0-100) ([15]; 250 g ai/ha): 100
Pre-emerge Herbicidal Activity DIGSA (phytotoxicity rating, scale 0-100) ([16]; 63 g ai/ha): 40
Pre-emerge Herbicidal Activity DIGSA (phytotoxicity rating, scale 0-100) ([16]; 250 g ai/ha): 90
Pre-emerge Herbicidal Activity AMBEL (phytotoxicity rating, scale 0-100) ([17]; 63 g ai/ha): 50
Pre-emerge Herbicidal Activity AMBEL (phytotoxicity rating, scale 0-100) ([17]; 250 g ai/ha): 90
Pre-emerge Herbicidal Activity CASOB (phytotoxicity rating, scale 0-100) ([18]; 63 g ai/ha): 0
Pre-emerge Herbicidal Activity CASOB (phytotoxicity rating, scale 0-100) ([18]; 250 g ai/ha): 50
Pre-emerge Herbicidal Activity IPOHE (phytotoxicity rating, scale 0-100) ([19]; 63 g ai/ha): 50
Pre-emerge Herbicidal Activity IPOHE (phytotoxicity rating, scale 0-100) ([19]; 250 g ai/ha): 95
Pre-emerge Herbicidal Activity SORHA (phytotoxicity rating, scale 0-100) ([20]; 63 g ai/ha): 50
Pre-emerge Herbicidal Activity SORHA (phytotoxicity rating, scale 0-100) ([20]; 250 g ai/ha): 90
Pre-emerge Herbicidal Activity SETVI (phytotoxicity rating, scale 0-100) ([21]; 63 g ai/ha): 50
Pre-emerge Herbicidal Activity SETVI (phytotoxicity rating, scale 0-100) ([21]; 250 g ai/ha): 95
Pre-emerge Herbicidal Activity CHEAL (phytotoxicity rating, scale 0-100) ([22]; 63 g ai/ha): 100
Pre-emerge Herbicidal Activity CHEAL (phytotoxicity rating, scale 0-100) ([22]; 250 g ai/ha): 100
Pre-emerge Herbicidal Activity ECHCG (phytotoxicity rating, scale 0-100) ([23]; 63 g ai/ha): 0
Pre-emerge Herbicidal Activity ECHCG (phytotoxicity rating, scale 0-100) ([23]; 250 g ai/ha): 80
